Experimental data taken from patent publication US4562190A, “Benzothiazolone derivatives, processes for preparation thereof and pharmaceutical compositions comprising the same” (Fujisawa Pharmaceutical Co., Ltd., priority 1983, dated 1985).
Like-named read-outs stand apart in the source and are kept apart here.

What was measured:
blood pressure = assay: Antihypertensive activity (DOCA-treated, uninephrectomized rats, oral); format: in vivo, male Wistar rats; conditions: dose 1.0 mg/kg, DOCA/saline uninephrectomized rats, mean blood pressure 150-200 mmHg
Method: Five-week old male Wistar rats were uninephrectomized under anesthesia. Deoxycorticosterone acetate (DOCA) (30 mg/kg), suspended in peanut oil, was injected subcutaneously twice a week and 1% saline was substituted for the drinking water. Animals with mean blood pressure 150-200 mmHg were used for experiment between 5 and 7 weeks after surgery.
The test compound was administered orally. Blood pressure was measured at the femoral artery by means of a pressure transducer and recorded as electrically integrated values of mean arterial pressure.

[1] = tested on: left ventricular pressure (dp/dt max) and heart rate; assay: Cardiotonic activity (anesthetized dogs, i.v.); format: in vivo, Mongrel dogs; conditions: dosage 1 mg/kg (printed "1."), injected into femoral vein; pentobarbital-anesthetized dogs; vs predosing period
Method: Mongrel dogs of either sex were anesthetized with sodium pentobarbital, 35 mg/kg, i.p.. The animals were allowed to breathe spontaneously. The left carotid artery was isolated and a catheter (USCI, #8F) filled with heparinized saline was inserted and advanced into the left ventricle. The catheter was connected to a pressure transducer (Nihonkohden, MPU-0.5A) to measure the left ventricular pressure, from which dp/dt max was derived by analog computing. To measure the systemic blood pressure the left femoral artery was cannulated. The blood pressure pulses was used to trigger a heart rate meter. Another catheter was positioned in the vena cave through right femoral vein for injection of drug. Systemic blood pressure, left ventricular pressure, dp/dt max and heart rate were recorded simultaneously on a polygram (Nihonkohden, RJG-4008).
Test compound was dissolved in dimethyl sulfoxide (0.04 ml/kg) and injected into the femoral vein. The parameters after dosing were compared with those during the predosing period.
Test results were represented in terms of percentage of dp/dt max changes (dp/dt M.C.) and percentage of heart rate changes (H.R.C.) calculated by following formulae. [formula]

platelet aggregation = assay: Inhibitory activity on platelet aggregation; format: cell-based; conditions: Oryctolagus cuniculus, rabbit platelet rich plasma, 37° C.
Method: Platelet rich plasma (PRP) which contains 6.5-7.5×10^8 platelet/ml was prepared from rabbit blood. To the 200 μl of PRP, 5 μl of calcium chloride (1mM) and 50 μl of pH 7.4 Tris-acetate solution (5 mM) containing 120mM NaCl and test compound was added successively, and then stirred for 2 min. at 37° C. To the solution 5 μl of adenosine diphosphate (ADP) (2.5 μM) or collagen (2.5 μg/ml) was added as an aggregation inducer. Aggregation was measured by using an aggregometer (NKK HEMA TRACER 1).

CC1CC(=O)NN=C1c1ccc2sc(=O)n(C)c2c1 (centres unmarked) [test compound .circle.1, 3-Methyl-5-(4-methyl-6-oxo-1,4,5,6-tetrahydro-3-pyridazinyl)benzothiazolone]
Effect Max (mean ratio of maximum decrease of blood pressure) (blood pressure): 63%

CCOC(=O)Cn1c(=O)sc2ccc(C3=NNC(=O)CC3C)cc21 (centres unmarked) [test compound .circle.2, 3-Ethoxycarbonylmethyl-5-(4-methyl-6-oxo-1,4,5,6-tetrahydro-3-pyridazinyl)benzothiazolone]
H.R.C. (percentage of heart rate changes) [1]: 22%
dp/dt M.C. (percentage of dp/dt max changes) [1]: 63%

CC1CC(=O)NN=C1c1ccc2sc(=O)[nH]c2c1 (centres unmarked) [test compound .circle.3, 5-(4-Methyl-6-oxo-1,4,5,6-tetrahydro-3-pyridazinyl)benzothiazolone]
IC50 (platelet aggregation; inducer ADP (2.5 μM), read-out: ID50, ADP): 0.061 µM
IC50 (platelet aggregation; inducer collagen (2.5 μg/ml), read-out: ID50, Collagen): 0.035 µM
